{"source": "patent US12351585B2", "about": "“2-phenyl-3,4-dihydropyrrolo[2,1-f] [1,2,4]triazinone derivatives as phosphodiesterase inhibitors and uses thereof” (TOPADUR PHARMA AG, priority 2015, dated 2025)", "key": {"[1]": {"tested_on": "phenylephrine-precontracted rat aortic rings", "assay": "Isometric tension studies on rat aortic rings (relaxation of phenylephrine-precontracted rings)", "conditions": "for potency and efficacy compared to intact endothelium, in words: L-NAME (FIG. 2C) or mechanical removal of endothelium (FIG. 2D); for EC50 / Emax: Rattus norvegicus", "procedure": "After 1 week of acclimatization, rats were anesthetized. Appropriate depth of anesthesia was determined by the absence of the leg flexor response and the eyelid reflex. Then, the thorax was quickly opened by a midline incision, and the rat was sacrificed by cutting the heart and exsanguination.\nIndomethacin (1 μM) was added to the saline solution.\nEligible rings were then washed several times to restore tension to the baseline level.\nIn some experiments, the entire length of the thoracic aorta was functionally denuded of the endothelial layer by gently scraping the luminal surface with a 1.5 mm glass rod. […] Rings were then washed several times to restore tension to the baseline level.\nIndomethacin (1 μM) was added to the saline solution. […] Only vessels with at least 60% relaxation to 1 μM ACh from the tension with 300 nM were eligible.\nThe preparations were allowed to equilibrate for 60 min in Krebs with high glucose (25 mM) before contraction to a new single concentration of PE (300 nM).\nFinally, sodium nitroprusside (0.1 mM) was added, in order to obtain maximum relaxation of arterial rings.\nThe amount of relaxation (percent values as means±SEM) was quantified as percent relaxation from the tension (plateau) achieved with phenylephrine.\nData are presented as mean±SEM. Statistical analysis of results has been performed by analysis of variance (ANOVA) either parametric or non-parametric (Kruskal-Wallis), followed by Bonferroni test or Dunn tests as appropriate (GraphPad Software Inc, San Diego, CA, USA). Significance was accepted when P<0.05. Non-linear regression was conducted with GraphPad Software)."}, "[2]": {"tested_on": "human pulmonary artery smooth muscle cells (hPASMC)", "assay": "Measurements of cGMP in human pulmonary artery smooth muscle cells (hPASMC)", "assay_type": "cell-based", "conditions": "incubation 15 or 30 min", "protocol": "Human Pulmonary Artery Smooth Muscle Cells (hPASMC) were purchased from Clonetics™ Lonza (Lonza, reference number CC-2581) and cultured in Clonetics™ smooth muscle growth medium (Clonetics™ SmGM™-2 with BulletKit™ growth factor supplements (Lonza, reference number CC-3182) at 37° C. in 500 CO2. Culture medium was replaced each 48 hours. Cells were grown in 75 cm^2 culture plates. 48 h before the experiments, cells were trypsinized (Trypsin kit One ReagentPack™ (CC-5034), Lonza) and plated in 96 well plates precoated with collagen I at 10000 cells per well. 24 h before the experiments culture medium was replaced by serum-reduced (0.5% FBS) medium.\nMeasurements of intracellular cGMP were performed using the Amersham cGMP EIA System (GE Healthcare, RPN226) following the instructions of the manufacturer. The assay has a sensitivity of 2 fmol cGMP per well. Briefly, incubations were terminated by adding Amersham's lysis buffer 1 and cells left for 10 min under agitation to ensure complete lysis. cGMP in samples was then acetylated using triethylamine and acetic anhydride and determined by a competitive ELISA. The ELISA is based on the competition between acetylated cGMP in cell culture lysates and a peroxidase-labelled cGMP conjugate for limited binding sites on a cGMP specific antiserum immobilized on pre-coated 96 well MTP. cGMP was determined based on a standard curve. […]"}, "[3]": {"molecular_target": "human phosphodiesterase-5 (PDE5) (Homo sapiens (Human), UniProt O76074)", "assay": "PDE5 assay: formation of 5'GMP from cGMP, PDE5 enzyme isolated from human platelets", "procedure": "Purpose: Evaluation of the effects of compounds of the present invention on the activity of the human phosphodiesterase-5 quantified by measuring the formation of 5′GMP from cGMP using PDE5 enzyme isolated from human platelets.\nThereafter, the reaction is initiated by addition of the enzyme and the mixture is incubated for 60 min at 22° C.\nFor basal control measurements, the enzyme is omitted from the reaction mixture. Following incubation SPA beads are added. After 20 min at 22° C. under shaking, the amount of [3H]5′GMP is quantified with a scintillation counter (Topcount, Packard)."}}, "note": "Like-named read-outs stand apart in the source and are kept apart here.", "data": [{"compound": "CCCOc1ccc(S(=O)(=O)N2CCC(CCO)CC2)cc1-c1nn2c(CCC)c(/C=N/O)c(C)c2c(=O)[nH]1", "note": "[Compound 1r, (E)-2-(5-((4-(2-hydroxyethyl)piperidin-1-yl)sulfonyl)-2-propoxyphenyl)-5-methyl-4-oxo-7-propyl-3,4-dihydropyrrolo[2,1-f][1,2,4]triazine-6-carbaldehyde oxime]", "values": [{"measurement": "potency and efficacy compared to intact endothelium, in words", "setting": "[1]", "result": "largely impaired"}, {"measurement": "EC50", "setting": "[1]; High Glucose (25 mM)", "result": 2.79, "unit": "nM"}, {"measurement": "Emax", "setting": "[1]; High Glucose (25 mM)", "result": 51, "unit": "%"}, {"measurement": "EC50", "setting": "[1]; Intact Endothelium (E+)", "result": 0.0074, "unit": "nM"}, {"measurement": "Emax", "setting": "[1]; Intact Endothelium (E+)", "result": 91.9, "unit": "%"}, {"measurement": "EC50", "setting": "[1]; L-NAME (100 μM)", "result": 0.935, "unit": "nM"}, {"measurement": "Emax", "setting": "[1]; L-NAME (100 μM)", "result": 60.4, "unit": "%"}, {"measurement": "EC50", "setting": "[1]; Without Endothelium", "result": 5.94, "unit": "nM"}, {"measurement": "Emax", "setting": "[1]; Without Endothelium", "result": 39.8, "unit": "%"}, {"measurement": "relaxation of rat aortic rings, comparison in words", "setting": "[1]; intact endothelium (FIG. 2A)", "result": "more potent and effective than Sildenafil"}, {"measurement": "cGMP in hPASMC, activity compared to sildenafil", "setting": "[2]", "result": "significantly higher activity as compared to the reference inhibitor sildenafil"}, {"measurement": "IC50", "setting": "[3]", "result": 0.16, "unit": "nM"}]}, {"compound": "(E)-2-(2-ethoxy-5-(4-(2-hydroxyethyl)piperidin-1-ylsulfonyl)phenyl)-5-methyl-4-oxo-7-propyl-3,4-dihydropyrrolo[1,2-f][1,2,4]triazine-6-carbaldehyde oxime [Compound 1al]", "values": [{"measurement": "% inhibition at 5.0E−09M", "setting": "[3]; 5.0E−09M, percent inhibition of control enzyme activity", "result": 84.9, "unit": "%"}, {"measurement": "IC50", "setting": "[3]; human platelet PDE5", "result": 0.48, "unit": "nM"}]}, {"compound": "CCCc1c(/C=N/O)c(C)c2c(=O)[nH]c(-c3cc(S(=O)(=O)N4CCN(CCCO)CC4)ccc3OCC)nn12", "note": "[Compound 1an, (E)-2-(2-ethoxy-5-(4-(3-hydroxypropyl)piperazin-1-ylsulfonyl)phenyl)-5-methyl-4-oxo-7-propyl-3,4-dihydropyrrolo[1,2-f][1,2,4]triazine-6-carbaldehyde oxime]", "values": [{"measurement": "IC50", "setting": "[3]; human platelet PDE5", "result": 0.42, "unit": "nM"}]}, {"compound": "(E)-2-(4-(4-ethoxy-3-(6-((methoxyimino)methyl)-5-methyl-4-oxo-7-propyl-3,4-dihydropyrrolo [1,2-f][1,2,4]triazin-2-yl)phenylsulfonyl)piperazin-1-yl)ethyl nitrate [Compound 1ai]", "values": [{"measurement": "% inhibition at 5.0E−09M", "setting": "[3]", "result": 0.3, "unit": "%"}]}, {"compound": "CCCOc1ccc(S(=O)(=O)N2CCN(C)CC2)cc1-c1nn2c(CCC)c(/C=N/OC)c(C)c2c(=O)[nH]1", "note": "[Compound 1o, (E)-5-methyl-2-(5-((4-methylpiperazin-1-yl)sulfonyl)-2-propoxyphenyl)-4-oxo-7-propyl-3,4-dihydropyrrolo[2,1-f][1,2,4]triazine-6-carbaldehyde O-methyl oxime]", "values": [{"measurement": "IC50", "setting": "[3]; human platelet PDE5", "result": 0.53, "unit": "nM"}]}, {"compound": "CCCOc1ccc(S(=O)(=O)N2CCC(CCO[N+](=O)[O-])CC2)cc1-c1nn2c(CCC)c(/C=N/O)c(C)c2c(=O)[nH]1", "note": "[Compound 1v, (E)-2-(1-((3-(6-((hydroxyimino)methyl)-5-methyl-4-oxo-7-propyl-3,4-dihydropyrrolo[2,1-f][1,2,4]triazin-2-yl)-4-propoxyphenyl)sulfonyl)piperidin-4-yl)ethyl nitrate]", "values": [{"measurement": "potency and efficacy compared to intact endothelium, in words", "setting": "[1]", "result": "superior"}, {"measurement": "relaxation of rat aortic rings, comparison in words", "setting": "[1]; intact endothelium (FIG. 2A)", "result": "more potent and effective than Sildenafil"}, {"measurement": "relaxation of rat aortic rings, comparison in words", "setting": "[1]; pre-exposed to high glucose 25 mM (FIG. 2B)", "result": "clearly more potent and efficacious than 1r"}, {"measurement": "cGMP in hPASMC, activity compared to sildenafil", "setting": "[2]", "result": "significantly higher activity as compared to the reference inhibitor sildenafil"}]}, {"compound": "CCCc1c(/C=N/O)c(C)c2c(=O)[nH]c(-c3cc(S(=O)(=O)N4CCN(C)CC4)ccc3OCC)nn12", "note": "[Compound 1a, (E)-2-(2-ethoxy-5-((4-methylpiperazin-1-yl)sulfonyl)phenyl)-5-methyl-4-oxo-7-propyl-3,4-dihydropyrrolo[2,1-f][1,2,4]triazine-6-carbaldehyde oxime]", "values": [{"measurement": "IC50", "setting": "[3]; human platelet PDE5", "result": 0.25, "unit": "nM"}]}]}
